Literature values in US20240165126A1 (TONIX PHARMACEUTICALS HOLDING CORP., priority 2021, published 2024).

Details: orally administered; extensive first pass hepatic metabolism; Smith et al. 2012

For C=CCN1CC[C@]23c4c5ccc(O)c4O[C@H]2C(=O)CC[C@@]3(O)[C@H]1C5 [Naloxone], the systemic bioavailability is listed as ≤ 2%.
